The results in this text go back to patent US20200108043A1, “COMPOUNDS AND COMPOSITIONS FOR EXTENDING LIFESPAN OF A SUBJECT” (YALE UNIVERSITY, priority 2017, published 2020).

Assay [1] has as its system Saccharomyces cerevisiae. In words: High-Life (High throughput replicative Lifespan measurement) flow cytometry assay in MEP yeast. The format is cell-based. The settings on record: 10 μM, 24 hours in culture, 3-4 replicate wells, repeat of screen hits. Here is the method: Cells were labeled with NHS-fluorescein as described above, then diluted to 20 cells/μL in media. 80 μL/well was aliquoted to 384-well plates, which were covered with a breathable membrane and placed on a shaker platform in a humidified incubator. After 3 hours, the plates were removed from the incubator and each well was treated with 20 μL pre-warmed, 30° C. 5 μM β-estradiol in media. In the case of ibuprofen or compound-treated wells, the compound was diluted in this volume at a 5× concentration to achieve a final concentration of 10 μM, or 100 μM for ibuprofen. The plates were then returned to the incubator. At indicated times, one plate was removed from the incubator and placed on an autosampler cooled to 8° C. attached to a Stratedigm flow cytometer. The cytometer was set to automatically add and mix 20 μL of aqueous solution containing 60 μg/mL CF405M-WGA (Biotium 29028) and propidium iodide (Sigma P4864) prior to acquiring 80 μL of sample for each well.
In order to test the lifespan of model organisms on both a large-scale and with quick turn-around, a massively multiplexed method was developed to measure replicative lifespan in the short-lived model organisms Saccharomyces cerevisiae. The protocol uses green-fluorescent labeling to identify progenitor cells, red-fluorescent labeling to differentiate non-viable cells, and blue-fluorescent labeling of bud scars to determine replicative age (FIG. 1). Each parameter is measured using a flow cytometer.
To achieve high throughput, the measurement system was automated, and the assay was performed in 384-well plates. The assay was performed using an autosampler-equipped flow cytometer, in a volume of 100 μL. Growth of even a single cell and its progeny in such a small volume will result in nutrient starvation before the natural replicative lifespan is exhausted; therefore to circumvent this issue, High-Life experiments were performed in the background of the Mother Enrichment Program (MEP) (Lindstrom and Gottschling, Genetics. 2009 October; 183(2):413-22). MEP strains express a CRE recombinase fused to an estrogen-binding domain for only a short time after birth. In the presence of β-estradiol, the recombinase translocates to the nucleus where it can excise two essential genes that have been modified to contain the exogenous LoxP sequence. Addition of β-estradiol to the media thus renders newborn daughters inviable without affecting existing mother cells, preventing exponential growth of the cell population and nutrient depletion (FIG. 2A).
The High-Life method was then tested to determine if it was suitable to screening for compounds that extend replicative lifespan. […] The effect of these compounds on High-Life readings was assayed after 24 hours in culture at 10 μM concentration. As a positive control, ibuprofen was used.
For orientation: A flow cytometer gives signals particle by particle.

The test system of a further assay is C. elegans. Briefly: Roundworm (C. elegans) lifespan extension. It is filed as in vivo, Caenorhabditis elegans. The settings on record: 10 μM in NGM plates, treated for duration of lifespan, vs control. Here is the method:
Synchronized animals were obtained using the egg-laying method, allowing young […] eggs for 4 hours on bacteria-seeded plates. For each treatment group, 120 synchronized day-1 adults were used. All experiments were carried out at 20° C. Treatment groups were blinded. Nematode growth media (NGM) plates were made for each treatment group: Negative control (DMSO), Mycophenolic Acid (10 μM in DMSO), and Terreic Acid (10 μM in DMSO). The compounds were added to NGM media before pouring the plates. The plates were then dried overnight before moving them to 4° C. to prevent degradation of the compounds. Plates were seeded with 100 μL of 10× concentrated OP50 E. coli, and dried overnight at room temperature. Plates were UV treated with a UVP CL-1000 Ultraviolet Crosslinker, run twice on the energy setting ‘9999’ for about 5 minutes each run. Worms were transferred to new plates every 2-4 days. Viability was scored every day, with death determined by lack of response to a platinum wire. Missing worms, or those that died due to internal hatching were censored.

The subject of assay [2] is Saccharomyces cerevisiae. Briefly: High-Life (High throughput replicative Lifespan measurement) flow cytometry assay in MEP yeast. The format is cell-based. The note with it: fresh samples from secondary source, 24 hours of culture.
The next assay has as its target T1, proteasome (Saccharomyces cerevisiae, UniProt P30656).
T1 construct: with 50 μg of total protein in 200 μL of lysis buffer; endogenous in cells; host or cells: S. cerevisiae BY4741 wild-type or ΔUBR2 cells, glass-bead lysate (total protein extract)
Briefly: Proteasome assay with fluorogenic substrate Suc-LLVY-AMC on yeast protein extracts. The settings on record: wild-type (BY4741) cells, presence vs absence of MPA. It is filed as biochemical. Here is the method: For protein extraction, 50 mL of cells were grown for 18 hours to an OD600 of approximately 0.8, then transferred to a 50 mL conical tube and centrifuged at 4255×g for 5 minutes at room temperature. The supernatant was discarded, and the cells were re-suspended in 150 μL of cold lysis buffer (50 mM Tris-HCl, pH 7.5, 0.5 mM EDTA, 5 mM MgCl2, with complete ULTRA mini protease inhibitor tablets, EDTA free) and transferred to a 1.5 mL tube. A ¼ volume of 500-750 μm glass beads (Acros Organics 397641000) was added to each tube. For 10 rounds, the tubes were chilled in ice water for 1 minute, then vortexed at maximum speed for 30 seconds to physically rupture the cells, and returned to the ice water. Samples were then spun for 3 minutes at 2500×g and 4° C., and the supernatant was transferred to a fresh tube. The solution was further clarified by centrifugation at 8000×g for 10 minutes at 4° C., and the supernatant was transferred to a fresh tube. Protein concentration was measured using a Nanodrop measuring the absorbance of the sample at 280 nm.
The proteasome assay used was described in Kruegel, et al. PLoS Genet. 7, (2011). The assay was performed in a 96-well clear-bottom plate (Costar 3603) with 50 μg of total protein in 200 μL of lysis buffer. The fluorogenic proteasome substrate Suc-LLVY-AMC (Bachem 1-1395) was added to a final concentration of 100 μM. Fluorescence intensity with an excitation wavelength of 380 nm and an emission wavelength of 460 nm was recorded at 5-minute intervals using a Neo2 plate reader (BioTek) set to mix constantly and maintain 30° C. Negative control reactions were performed in the presence of 50 μM MG132 (Sigma 474787), a proteasome inhibitor.

Each structure is given as a SMILES string. Entries after “also recorded” stand apart in the source; their conditions may differ.

As to `COc1c(C)c2c(c(O)c1C/C=C(\C)CCC(=O)O)C(=O)OC2` [mycophenolic acid], the “average High-Life readings (progenitor fraction viable vs CF405M intensity) relative to controls” value in the assay with Saccharomyces cerevisiae [1] is “at least slightly above controls”. In addition, in the assay on C. elegans, the “lifespan of C. elegans” value is listed as “measurable extension of lifespan; also recorded: statistically significant lifespan extension”. Also, the “dose-response: cell survival in High-Life” value with Saccharomyces cerevisiae [2] is given as “clear concentration-dependent effects”. Also, the “proteasome activity in wild-type cells” value at proteasome is on record as “did not activate the proteasome”.
